In ChEMBL document CHEMBL1201862, “PubChem BioAssay data set” (2004):
The source made the active and inactive calls.

Columns and labels:
[1] = NIH-3T3 fibroblast cytotoxicity, dose response, cytotoxicity control, cell-based, fluorescence, Alamar Blue, secondary assay (AID 2327); format: functional;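 also: NIH-3T3 mouse fibroblasts cultured with fluconazole at 8 µg/mL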
[2] = fluconazole-exposed Candida albicans growth modulators – fluorescence, retest, confirmation (AID 2467); format: functional, cell-based
[3] = biological target: T1, Serine/threonine-protein phosphatase (Candida dubliniensis (strain CD36 / CBS 7987 / NCPF 3949 / NRRLY-17841) (Yeast), UniProt B9W6M3); assay: blockers of CaCl2-induced CDRE-lacZ signaling – S. cerevisiae, luminescence, secondary, dose response (AID 2388); format: functional, cell-based;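 also: yeast reporter cells carrying a calcineurin-responsive lacZ construct stimulated with calcium chloride; luminescent beta-galactosidase reporter signal in whole cells rather than isolated phosphatase activity; potency for inhibition where a drop in reporter signal means calcineurin blockade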
T1 sequence (B9W6M3 whole entry): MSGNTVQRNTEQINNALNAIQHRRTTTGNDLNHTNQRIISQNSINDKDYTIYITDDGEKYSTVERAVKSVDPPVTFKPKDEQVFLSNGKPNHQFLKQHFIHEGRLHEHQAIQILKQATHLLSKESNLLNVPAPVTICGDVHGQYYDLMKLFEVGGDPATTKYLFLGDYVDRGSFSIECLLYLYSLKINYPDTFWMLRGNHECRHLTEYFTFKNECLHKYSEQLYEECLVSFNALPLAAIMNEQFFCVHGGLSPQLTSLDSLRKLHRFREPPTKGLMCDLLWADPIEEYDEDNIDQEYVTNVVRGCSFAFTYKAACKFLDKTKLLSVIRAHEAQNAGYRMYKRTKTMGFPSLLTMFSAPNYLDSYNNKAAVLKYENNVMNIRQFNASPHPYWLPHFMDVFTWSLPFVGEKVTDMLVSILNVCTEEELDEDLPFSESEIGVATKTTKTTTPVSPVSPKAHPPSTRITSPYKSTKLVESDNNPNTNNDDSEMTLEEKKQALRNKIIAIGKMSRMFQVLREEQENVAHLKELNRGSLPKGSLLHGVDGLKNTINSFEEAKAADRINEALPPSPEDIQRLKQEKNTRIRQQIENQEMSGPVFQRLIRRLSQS

[4] = Luminescence Cell-Based Dose Retest to Confirm Inhibitors of Cancer Stem Cells. [Related pubchem assays (depositor defined):AID2717, AID2721]; format: functional; settings: Homo sapiens
[5] = biological target: ATP-dependent molecular chaperone HSP82 (Candida albicans (strain WO-1) (Yeast), UniProt C4YTQ8); assay: steroid-induced GRE reporter decrease in yeast – S. cerevisiae, luminescence, Hsp90 inhibitor project, dose response (AID 2400); format: functional, cell-based;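 also: beta-galactosidase luminescence from glucocorticoid response element reporter as proxy for Hsp90 function; inhibitor potency where signal loss means Hsp90 inhibition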
Chain of ATP-dependent molecular chaperone HSP82 (C4YTQ8 whole entry): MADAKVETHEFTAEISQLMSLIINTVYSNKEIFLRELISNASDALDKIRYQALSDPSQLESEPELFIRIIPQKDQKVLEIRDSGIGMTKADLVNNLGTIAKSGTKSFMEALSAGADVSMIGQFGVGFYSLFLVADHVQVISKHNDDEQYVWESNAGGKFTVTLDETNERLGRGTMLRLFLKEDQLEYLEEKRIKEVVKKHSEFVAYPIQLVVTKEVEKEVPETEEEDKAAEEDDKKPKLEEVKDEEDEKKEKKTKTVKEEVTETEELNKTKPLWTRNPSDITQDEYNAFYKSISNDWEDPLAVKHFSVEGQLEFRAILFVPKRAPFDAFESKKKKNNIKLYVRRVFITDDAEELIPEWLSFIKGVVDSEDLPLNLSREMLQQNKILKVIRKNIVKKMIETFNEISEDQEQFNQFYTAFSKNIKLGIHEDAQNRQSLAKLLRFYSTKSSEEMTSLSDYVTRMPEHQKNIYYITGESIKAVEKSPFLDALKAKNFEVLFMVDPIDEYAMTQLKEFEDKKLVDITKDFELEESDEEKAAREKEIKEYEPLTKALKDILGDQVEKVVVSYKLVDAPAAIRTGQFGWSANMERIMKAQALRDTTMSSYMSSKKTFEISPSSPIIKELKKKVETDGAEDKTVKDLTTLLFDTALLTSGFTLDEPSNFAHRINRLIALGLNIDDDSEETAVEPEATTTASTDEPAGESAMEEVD

[6] = test system: Escherichia coli; assay: microbe, parasite or virus in culture
[7] = biological target: FAD-linked sulfhydryl oxidase ALR (Homo sapiens, UniProt P55789); assay: ALR-catalysed DTT oxidation blockers – biochemical, H2O2 detection, luminescence, cherry-pick, dose response (AID 493248)
Chain of FAD-linked sulfhydryl oxidase ALR (P55789 whole entry): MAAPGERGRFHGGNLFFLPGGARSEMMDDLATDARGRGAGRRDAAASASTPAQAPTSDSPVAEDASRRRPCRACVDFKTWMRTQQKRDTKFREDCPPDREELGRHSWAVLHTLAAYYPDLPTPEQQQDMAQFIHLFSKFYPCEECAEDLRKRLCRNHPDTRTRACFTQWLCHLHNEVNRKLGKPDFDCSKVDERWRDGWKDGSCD

[8] = test system: HeLa; assay: ATP-based viability loss in HeLa cells – cell-based, CellTiter-Glo luminescence, cherry-pick samples, cytotoxicity control for MITF activator project, dose response (AID 540259); format: functional; settings: Homo sapiens
[9] = viability of PTEN-deleted HCT116 cells – cell-based, HCT116 PTEN knockout, dose response (AID 1047); format: functional;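 also: HCT116 colon tumor cells with PTEN knocked out; cells exposed to compound for 60 hours before readout; potency for loss of cell viability measured by luminescence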
[10] = viability of HCT116 lacking mutant beta-catenin – cell-based, human colon tumor, dose response (AID 1045); format: functional;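 also: HCT116 colon tumor cells with beta catenin knocked out; cells exposed to compound for 60 hours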
[11] = biological target: T2, Microphthalmia-associated transcription factor (Homo sapiens, UniProt O75030); assay: reducers of TRPM1 reporter luminescence, concentration series – cell-based, SK-MEL-5, cherry-picked, set 3, MITF inhibitor project, dose response (AID 493073); format: functional;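 also: SK-MEL-5 melanoma cells with luciferase driven by the MITF target TRPM1 promoter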
T2 sequence (O75030 whole entry): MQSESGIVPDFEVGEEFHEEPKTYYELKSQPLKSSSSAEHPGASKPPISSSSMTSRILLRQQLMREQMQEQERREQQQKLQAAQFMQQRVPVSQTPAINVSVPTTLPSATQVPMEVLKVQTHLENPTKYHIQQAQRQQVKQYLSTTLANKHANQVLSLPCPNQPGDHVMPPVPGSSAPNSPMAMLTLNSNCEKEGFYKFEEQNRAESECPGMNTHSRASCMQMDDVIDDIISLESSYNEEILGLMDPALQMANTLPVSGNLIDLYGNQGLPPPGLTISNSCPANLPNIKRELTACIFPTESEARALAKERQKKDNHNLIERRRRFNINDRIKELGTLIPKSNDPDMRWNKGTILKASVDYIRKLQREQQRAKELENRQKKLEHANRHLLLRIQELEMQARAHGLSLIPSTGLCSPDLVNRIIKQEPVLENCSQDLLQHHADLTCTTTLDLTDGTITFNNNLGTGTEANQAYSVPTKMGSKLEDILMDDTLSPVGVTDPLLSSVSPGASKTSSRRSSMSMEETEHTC

[12] = HPDE-C7 pancreatic duct cell viability loss – fluorescence, HTS (AID 430); format: functional, cell-based; settings: Homo sapiens
[13] = Trypanosoma cruzi growth suppression in host cells – NIH3T3 host cells, beta-gal luminescence, confirmation (AID 2044); format: functional, cell-based;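 also: intracellular parasites grown in NIH/3T3 mouse fibroblasts as host cells; luminescent beta-galactosidase reporter signal from transgenic T. cruzi replicating inside host cells; inhibitors lower the luminescence signal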
[14] = viability loss of HPDE-C7K cells – cell-based, fluorescence, HTS, primary screen (AID 431); format: functional; settings: Homo sapiens
[15] = NIH3T3 cell viability loss – ATP luminescence, mouse fibroblasts, counter-screen, dose response (AID 2010); format: functional, cell-based;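 also: cells exposed to compound for about 90 hours before reading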
[16] = test system: Vero; assay: viability of Vero cells under compound – cytotoxicity control for flavivirus capping enzyme inhibitors (AID 588742); format: functional; settings: Chlorocebus sabaeus
[17] = biological target: Dual specificity tyrosine-phosphorylation-regulated kinase 1A (Rattus norvegicus, UniProt Q63470); format: biochemical, Homo sapiens
[18] = biological target: Mu-type opioid receptor (Homo sapiens, UniProt P35372); format: functional, cell-based;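 also: U2OS cells with beta-arrestin recruitment to OPRM1 by beta-gal complementation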
Chain of Mu-type opioid receptor (P35372 whole entry): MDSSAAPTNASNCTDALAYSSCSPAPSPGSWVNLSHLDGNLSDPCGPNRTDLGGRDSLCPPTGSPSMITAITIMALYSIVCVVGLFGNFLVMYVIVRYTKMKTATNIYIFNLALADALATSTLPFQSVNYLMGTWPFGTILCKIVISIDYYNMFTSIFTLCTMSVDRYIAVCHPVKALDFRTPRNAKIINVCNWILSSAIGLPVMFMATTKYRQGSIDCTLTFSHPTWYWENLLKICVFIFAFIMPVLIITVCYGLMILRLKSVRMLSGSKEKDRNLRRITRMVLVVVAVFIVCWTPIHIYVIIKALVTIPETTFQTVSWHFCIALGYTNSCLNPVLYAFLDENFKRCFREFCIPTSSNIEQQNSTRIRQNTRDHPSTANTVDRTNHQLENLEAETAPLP

[19] = biological target: 5-hydroxytryptamine receptor 2A (Mus musculus, UniProt P35363); format: functional, cell-based;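 also: CHO-K1 cells with tagged receptor and beta-arrestin; agonist potency measured as compound-induced activation of the receptor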
Chain of 5-hydroxytryptamine receptor 2A (P35363 whole entry): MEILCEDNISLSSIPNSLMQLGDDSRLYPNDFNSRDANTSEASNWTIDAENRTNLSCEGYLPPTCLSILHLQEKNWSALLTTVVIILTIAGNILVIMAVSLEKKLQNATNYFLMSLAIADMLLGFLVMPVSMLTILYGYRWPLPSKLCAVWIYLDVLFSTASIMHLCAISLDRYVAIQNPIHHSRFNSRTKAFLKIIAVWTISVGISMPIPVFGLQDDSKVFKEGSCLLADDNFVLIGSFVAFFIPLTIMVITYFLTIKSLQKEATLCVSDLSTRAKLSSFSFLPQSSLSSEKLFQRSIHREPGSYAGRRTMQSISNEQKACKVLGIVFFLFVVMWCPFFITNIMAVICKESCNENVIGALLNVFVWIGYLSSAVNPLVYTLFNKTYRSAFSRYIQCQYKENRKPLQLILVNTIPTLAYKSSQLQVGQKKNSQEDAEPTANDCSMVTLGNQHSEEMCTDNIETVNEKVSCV

[20] = biological target: T3, Aminopeptidase N (Plasmodium falciparum FcB1/Columbia, UniProt O96935); assay: malaria alanyl aminopeptidase activity blockers – biochemical, fluorogenic H-Leu-NHMec substrate, 1536-well (AID 1445); parameters: species or system Plasmodium falciparum 3D7, 3D7
T3 sequence (O96935 whole entry): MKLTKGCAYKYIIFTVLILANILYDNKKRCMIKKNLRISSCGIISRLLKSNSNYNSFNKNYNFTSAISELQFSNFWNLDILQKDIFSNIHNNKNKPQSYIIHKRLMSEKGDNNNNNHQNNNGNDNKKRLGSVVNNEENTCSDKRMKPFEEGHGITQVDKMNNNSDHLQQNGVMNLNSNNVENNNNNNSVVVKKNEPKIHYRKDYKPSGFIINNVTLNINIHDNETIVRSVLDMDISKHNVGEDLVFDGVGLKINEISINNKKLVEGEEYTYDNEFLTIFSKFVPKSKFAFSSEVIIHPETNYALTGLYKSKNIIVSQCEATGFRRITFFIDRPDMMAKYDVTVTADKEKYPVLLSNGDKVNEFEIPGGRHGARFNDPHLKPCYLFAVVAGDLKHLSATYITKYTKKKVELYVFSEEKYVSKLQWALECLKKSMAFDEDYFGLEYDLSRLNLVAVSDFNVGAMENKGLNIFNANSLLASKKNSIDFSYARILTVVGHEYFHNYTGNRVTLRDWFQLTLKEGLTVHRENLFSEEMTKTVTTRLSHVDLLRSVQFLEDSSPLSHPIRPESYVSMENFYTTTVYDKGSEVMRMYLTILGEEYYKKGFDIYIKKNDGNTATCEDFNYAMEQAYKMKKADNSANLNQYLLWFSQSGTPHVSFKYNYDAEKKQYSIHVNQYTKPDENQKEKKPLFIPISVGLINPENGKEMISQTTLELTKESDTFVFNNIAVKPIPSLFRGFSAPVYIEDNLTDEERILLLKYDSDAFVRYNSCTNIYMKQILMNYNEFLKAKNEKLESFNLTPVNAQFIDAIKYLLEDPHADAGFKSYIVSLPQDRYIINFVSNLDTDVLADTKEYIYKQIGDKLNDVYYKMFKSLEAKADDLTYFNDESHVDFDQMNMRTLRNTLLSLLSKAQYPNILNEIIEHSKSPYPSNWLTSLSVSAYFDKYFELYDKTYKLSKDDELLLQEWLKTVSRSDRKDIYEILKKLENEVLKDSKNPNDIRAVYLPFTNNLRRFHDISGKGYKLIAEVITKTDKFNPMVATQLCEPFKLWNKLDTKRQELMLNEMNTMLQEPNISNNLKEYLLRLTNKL

In the case of `O=[N+]([O-])c1cccc(-c2cc(-c3cc(Br)ccc3O)n[nH]2)c1`, the EC50 [1] is reported as 19 µM (inconclusive), the EC50 [2] is reported as 0.954 µM (active) and the EC50 [3] is reported as > 180 µM (inactive). The AC50 [4] was 2.03 µM (active) and the EC50 [5] was 11.9 µM (active).

With `Oc1c(Br)cc(C2NC(c3ccccc3)=NO2)cc1Br` (stereo not drawn) the AC50 [6] was 20.2 µM (active).

For `Nc1ccc2oc(-c3cccs3)nc2c1`, the AC50 [7] was 0.155 µM (active) and the AC50 [8] was 168 µM (active).

With `CCOc1ccc2nc(C)cc(Nc3cccc([N+](=O)[O-])c3)c2c1` the EC50 [9] was 5.88 µM (active), the EC50 [10] was 7.34 µM (active) and the AC50 [11] was 17.8 µM (active).

In the case of `CN1CCc2c(C#N)c(N3CCCCC3)nc(NCc3ccccc3)c2C1`, the EC50 [12] is reported as 16.8 µM (active), the EC50 [13] is reported as 0.639 µM (active) and the EC50 [14] is reported as 2.44 µM (active). The EC50 [9] was 17.8 µM (active), the EC50 [15] was > 60 µM (not active) and the EC50 [10] was 13.5 µM (active). For the same compound, the CC50 [16] was > 40 µM (active).

For `COc1cc(/C=C2/C(=N)N3C(SC)=NSC3=NC2=O)ccc1OC(=O)c1ccco1`, the AC50 [17] was 5.64 µM (active).

In the case of `CC(=O)c1cccc(OCC(O)CNCC2COc3ccccc3O2)c1` (stereo not drawn), the EC50 [18] is reported as 92.5 µM (inactive) and the EC50 [19] is reported as 2.85 µM (active).

With `NS(=O)(=O)c1ccc(CCNC(=O)Cc2ccc(S(=O)(=O)N3CCCC3)s2)cc1` the IC50 [20] was 8.91 µM (active) and the AC50 [6] was 39.6 µM (active).
